Assay results as given in paper PMC4977651, “Molecular features of biguanides required for targeting of mitochondrial respiratory complex I and activation of AMP-kinase” (BMC Biology, 2016).
“And” between values parts separate entries of the source, which are not always exact repeats. Identical values can stand only once.

What was measured:
mouse heart mitochondria = experiment: ADP-stimulated rotenone-sensitive OCR in isolated mouse heart mitochondria; format: biochemical; parameters: rotenone sensitive OCR after ADP stimulation, individual replicates / rotenone sensitive OCR after ADP stimulation, average / rotenone sensitive OCR after 15 mins, average: unit not given here; conditions: for rotenone sensitive OCR after ADP stimulation, % of control, average / rotenone sensitive OCR after ADP stimulation, average: average of replicates; for rotenone sensitive OCR after ADP stimulation, % of control, individual replicates: replicate 1-11; for rotenone sensitive OCR after ADP stimulation, individual replicates: replicate 1-12
Description: (§1) Complex I and mitochondrial membranes were prepared from Bos taurus (bovine) heart. Intact mitochondria were isolated from rat liver and mouse heart and liver. Membranes were prepared from mouse heart mitochondria by 5 s bursts of sonication at 4 °C and collected by centrifugation (75,000 × g, 1 h).
Isolated mitochondria were monitored using a Seahorse XF96 extracellular flux analyzer at 32 °C. Mouse heart mitochondria, and mouse and rat liver mitochondria were plated into XF96 plates at 4 and 16–20 μg per well, respectively, in 220 mM mannitol, 70 mM sucrose, 10 mM KH2PO4, 5 mM MgCl2, 1 mM EGTA, 0.2 % fatty acid-free BSA, and 2 mM HEPES (pH 7.4 at 37 °C) with 10 mM glutamate and 10 mM malate and adhered by centrifugation (2000 × g, 20 min, 4 °C). The medium was supplemented with a further 5 mM glutamate and 5 mM malate and the mitochondria incubated for 15 min. Then two baseline readings were taken before the biguanides were added at IC50/5. […] Rotenone (2 μM) was added at the end of the experiment. Data from wells with failed port injections were excluded from the analyses. The RCR values (state III versus state IV respiration) were 3.4, 4.8, and 4.6 for mouse heart, rat liver, and mouse liver, respectively.

MDBK cells = experiment: Rotenone-sensitive oxygen consumption rate in intact MDBK cells; format: cell-based, Bos taurus; parameters: key to rotenone sensitive OCR after 40 mins of biguanide exposure / rotenone sensitive OCR after 40 mins of biguanide exposure, average: % of OCR recorded immediately before biguanide addition; conditions: biguanide at IC50/10; for rotenone sensitive OCR after 6 hours of biguanide exposure, % control, average / rotenone sensitive OCR after 6 hours of biguanide exposure, average: MDBK cells; for rotenone sensitive OCR after 6 hours of biguanide exposure, average: OCR normalized to OCR immediately prior to biguanide addition; for rotenone sensitive OCR after 40 mins of biguanide exposure, % control, average / rotenone sensitive OCR after 40 mins of biguanide exposure, average / rotenone sensitive OCR after 40 mins of biguanide exposure / rotenone sensitive OCR after 40 mins of biguanide exposure, % control: MDBK intact cells; for rotenone sensitive OCR after 40 mins of biguanide exposure, % control, average / rotenone sensitive OCR after 40 mins of biguanide exposure, average: average of replicates; for rotenone sensitive OCR after 40 mins of biguanide exposure / rotenone sensitive OCR after 40 mins of biguanide exposure, % control: individual replicates
Description: 143B (CRL-8303 from ATCC), HepG2 (85011430 from The Health Protection Agency), and MDBK (CCL-22 from ATCC) cells were grown on Dulbecco’s modified Eagle’s medium (DMEM) supplemented with 10 % fetal bovine serum (FBS, Thermo Fisher Scientific) at 37 °C in 5 % CO2. All cells were confirmed as negative for mycoplasma.
Oxygen consumption rates (OCRs) were measured using a Seahorse XF96 extracellular flux analyzer at 37 °C. For intact cell measurements, 1.4 × 10^4 143B, HepG2, or MDBK cells were plated (per well) in DMEM containing 10 % FBS into Seahorse Bioscience Inc. XF96 plates and incubated for ~12 h at 37 °C in 5 % CO2. Then, the medium was exchanged for assay buffer containing DMEM, 4.5 g L^−1 glucose, 1 mM pyruvate, 32 mM NaCl, 2 mM GlutaMAX, 15 mg L^−1 phenol red, and 20 mM HEPES (pH 7.4 at 37 °C) and the cells placed in a CO2-free incubator at 37 °C for 30 min. Basal oxygen consumption rates were established before the addition of biguanides at one-tenth of their IC50 (IC50/10), and followed for ~ 6 h before the addition of rotenone (2 μM).
Rotenone-sensitive OCRs were calculated by subtracting the rotenone-insensitive rates (determined at the end of the experiment). OCRs were normalized by dividing by the OCR recorded immediately prior to the addition of biguanide. For rate of uptake calculations, the OCRs at time points after biguanide addition were divided by the OCRs at the same time points in control experiments. Data from wells with failed port injections were excluded from the analyses. The respiratory control ratio (RCR) values (state III versus state IV respiration) were ~11 and ~6 for permeabilized MDBK and 143B cells, respectively.

[1] = target: mouse heart mitochondrial membranes (complex I) (Mus musculus, UniProt P03888+P03899+Q91WD5+Q9DC70); experiment: NADH:O2 oxidoreduction by mouse heart mitochondrial membranes; format: biochemical; conditions: for HillSlope (best fit value) / LogIC50 (best fit value): Prism variable slope fit; for LogIC50 (best fit value): log of IC50 in mM; for IC50: read-out: IC50 (best fit value), Prism variable slope fit, Bottom 0, Top 100
Summary of the method: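 At 32 °C, rates were taken by linear regression of NADH absorbance loss after NADH start. Isolated enzyme (0.5 μg mL^−1): 200 μM decylubiquinone, 200 μM NADH, pH 7.2 Tris with 0.15 % asolectin and CHAPS. Membranes (5 μg mL^−1): 200 μM NADH, 0.15 mM cytochrome c, pH 7.4 Tris-sucrose. IC50s carry 95 % confidence intervals.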

mouse liver mitochondria = experiment: ADP-stimulated rotenone-sensitive OCR in isolated mouse liver mitochondria; format: biochemical; parameters: rotenone sensitive OCR after ADP stimulation, individual replicates / rotenone sensitive OCR after ADP stimulation, average: unit not given here; conditions: for rotenone sensitive OCR after ADP stimulation, % of control, average / rotenone sensitive OCR after ADP stimulation, average: average of replicates; for rotenone sensitive OCR after ADP stimulation, % of control, individual replicates / rotenone sensitive OCR after ADP stimulation, individual replicates: replicate 1-5
Description: as §1
Isolated mitochondria were monitored using a Seahorse XF96 extracellular flux analyzer at 32 °C. Mouse heart mitochondria, and mouse and rat liver mitochondria were plated into XF96 plates at 4 and 16–20 μg per well, respectively, in 220 mM mannitol, 70 mM sucrose, 10 mM KH2PO4, 5 mM MgCl2, 1 mM EGTA, 0.2 % fatty acid-free BSA, and 2 mM HEPES (pH 7.4 at 37 °C) with 10 mM glutamate and 10 mM malate and adhered by centrifugation (2000 × g, 20 min, 4 °C). The medium was supplemented with a further 5 mM glutamate and 5 mM malate and the mitochondria incubated for 15 min. Then two baseline readings were taken before the biguanides were added at IC50/5. Biguanides were allowed to accumulate for 15–20 min before respiration was […] by the addition of 4 mM ADP. Rotenone (2 μM) was added at the end of the experiment. Data from wells with failed port injections were excluded from the analyses. The RCR values (state III versus state IV respiration) were 3.4, 4.8, and 4.6 for mouse heart, rat liver, and mouse liver, respectively.

Chain of mouse heart mitochondrial membranes (complex I) (P03899 whole entry): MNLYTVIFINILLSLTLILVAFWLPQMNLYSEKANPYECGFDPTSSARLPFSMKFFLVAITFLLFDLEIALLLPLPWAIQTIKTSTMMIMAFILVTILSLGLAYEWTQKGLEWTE
Chain of mouse heart mitochondrial membranes (complex I) (P03888 whole entry): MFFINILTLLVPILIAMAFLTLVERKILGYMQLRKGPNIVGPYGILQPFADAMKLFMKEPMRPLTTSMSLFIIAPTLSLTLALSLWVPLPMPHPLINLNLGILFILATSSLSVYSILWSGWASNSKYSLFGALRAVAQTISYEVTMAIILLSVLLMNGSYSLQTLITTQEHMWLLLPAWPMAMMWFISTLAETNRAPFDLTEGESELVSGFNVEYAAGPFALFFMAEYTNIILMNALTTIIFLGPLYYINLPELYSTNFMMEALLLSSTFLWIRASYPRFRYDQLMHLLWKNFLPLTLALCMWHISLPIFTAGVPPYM
Chain of mouse heart mitochondrial membranes (complex I) (Q9DC70 36-224): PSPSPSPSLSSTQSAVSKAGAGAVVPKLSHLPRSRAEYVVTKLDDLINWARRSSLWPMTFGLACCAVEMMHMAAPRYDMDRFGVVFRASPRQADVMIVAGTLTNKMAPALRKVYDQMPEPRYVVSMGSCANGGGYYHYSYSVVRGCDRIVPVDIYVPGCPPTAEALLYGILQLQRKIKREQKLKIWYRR
Chain of mouse heart mitochondrial membranes (complex I) (Q91WD5 34-463): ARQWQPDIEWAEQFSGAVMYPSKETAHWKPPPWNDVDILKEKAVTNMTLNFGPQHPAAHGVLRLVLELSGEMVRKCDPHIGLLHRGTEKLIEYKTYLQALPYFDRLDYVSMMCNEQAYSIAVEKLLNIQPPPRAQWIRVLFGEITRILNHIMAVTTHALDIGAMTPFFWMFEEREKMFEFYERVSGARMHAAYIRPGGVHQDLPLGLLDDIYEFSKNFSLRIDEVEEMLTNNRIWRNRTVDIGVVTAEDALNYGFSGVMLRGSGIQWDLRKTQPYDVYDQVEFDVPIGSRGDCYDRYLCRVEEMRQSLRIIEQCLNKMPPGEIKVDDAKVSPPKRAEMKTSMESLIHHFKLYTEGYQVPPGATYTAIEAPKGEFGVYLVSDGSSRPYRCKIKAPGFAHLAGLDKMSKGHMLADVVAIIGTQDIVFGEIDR

[H]/N=C(/N)N/C(=N/[H])NCCc1ccccc1 [phenformin, reference compound]
rotenone sensitive OCR after 15 mins, average (mouse heart mitochondria; ADP and phenformin added simultaneously, n = 8): 418.601 | rotenone sensitive OCR after 15 mins, % control (no phenformin) (mouse heart mitochondria; ADP and phenformin added simultaneously, n = 8 with phenformin, n = 6 control): 85 ± 10 % control and 85.2397 % control | rotenone sensitive OCR after ADP stimulation, % of control, average (mouse heart mitochondria): 30.06 % of control | rotenone sensitive OCR after ADP stimulation, average (mouse heart mitochondria): 73.69 | oxygen consumption, % of the control value (mouse heart mitochondria; phenformin at IC50/5 accumulated in the absence of ADP before ADP stimulation): 30% | rotenone sensitive OCR after ADP stimulation, % of control, individual replicates (mouse heart mitochondria): 34.41 % of control and 27.92 % of control and 37.45 % of control and 23.80 % of control and 31.47 % of control and 29.88 % of control and 25.27 % of control and 30.29 % of control | rotenone sensitive OCR after ADP stimulation, individual replicates (mouse heart mitochondria): 84.35 and 68.44 and 91.80 and 58.33 and 77.13 and 73.26 and 61.95 and 74.26 | rotenone sensitive OCR after 6 hours of biguanide exposure, % control, average (MDBK cells): 42.78 % control | rotenone sensitive OCR after 6 hours of biguanide exposure, average (MDBK cells): 42.91 | rotenone sensitive OCR after 40 mins of biguanide exposure, % control, average (MDBK cells): 95.24 % control | rotenone sensitive OCR after 40 mins of biguanide exposure, average (MDBK cells): 96.91 | rotenone sensitive OCR after 40 mins of biguanide exposure (MDBK cells): 97.35 and 95.76 and 94.48 and 101.29 and 95.15 and 97.44 | rotenone sensitive OCR after 40 mins of biguanide exposure, % control (MDBK cells): 95.67 % control and 94.11 % control and 92.85 % control and 99.55 % control and 93.51 % control and 95.76 % control | HillSlope (best fit value) [1]: -0.7733 | remaining activity at 130 µM ([1]; inhibitor 0.13 mM, read-out: average % (rate, % of no-inhibitor control)): 80.6% | remaining activity at 250 µM ([1]; inhibitor 0.25 mM, read-out: average % (rate, % of no-inhibitor control)): 70.4% | remaining activity at 500 µM ([1]; inhibitor 0.50 mM, read-out: average % (rate, % of no-inhibitor control)): 59.3% | remaining activity at 1000 µM ([1]; inhibitor 1.00 mM, read-out: average % (rate, % of no-inhibitor control)): 46.6% | remaining activity at 2000 µM ([1]; inhibitor 2.00 mM, read-out: average % (rate, % of no-inhibitor control)): 33.2% | remaining activity at 5000 µM ([1]; inhibitor 5.00 mM, read-out: average % (rate, % of no-inhibitor control)): 18.7% | remaining activity at 10000 µM ([1]; inhibitor 10.00 mM, read-out: average % (rate, % of no-inhibitor control)): 12.3% | LogIC50 (best fit value) [1]: -0.09624 | IC50 [1]: 801 µM | rotenone sensitive OCR after ADP stimulation, % of control, average (mouse liver mitochondria): 29.95 % of control | rotenone sensitive OCR after ADP stimulation, average (mouse liver mitochondria): 10.39 | rotenone sensitive OCR after ADP stimulation, % of control, individual replicates (mouse liver mitochondria): 29.69 % of control and 34.49 % of control and 19.77 % of control and 35.85 % of control | rotenone sensitive OCR after ADP stimulation, individual replicates (mouse liver mitochondria): 10.30 and 11.97 and 6.86 and 12.44

[H]/N=C(\N/C(=N/[H])Nc1ccc(Cl)cc1)NC(C)C [proguanil, reference compound]
rotenone sensitive OCR after ADP stimulation, % of control, average (mouse heart mitochondria): 99.28 % of control | rotenone sensitive OCR after ADP stimulation, average (mouse heart mitochondria): 240.45 | rotenone sensitive OCR after ADP stimulation, % of control, individual replicates (mouse heart mitochondria): 98.46 % of control and 125.69 % of control and 95.82 % of control and 99.56 % of control and 95.47 % of control and 84.72 % of control and 105.21 % of control and 89.32 % of control | rotenone sensitive OCR after ADP stimulation, individual replicates (mouse heart mitochondria): 238.46 and 304.41 and 232.07 and 241.13 and 231.22 and 205.20 and 254.80 and 216.32 | rotenone sensitive OCR after 6 hours of biguanide exposure, % control, average (MDBK cells): 89.87 % control | rotenone sensitive OCR after 6 hours of biguanide exposure, average (MDBK cells): 90.15 | rotenone sensitive OCR after 40 mins of biguanide exposure, % control, average (MDBK cells): 96.96 % control | rotenone sensitive OCR after 40 mins of biguanide exposure, average (MDBK cells): 98.65 | rotenone sensitive OCR after 40 mins of biguanide exposure (MDBK cells): 102.33 and 100.74 (2×) and 97.32 and 96.18 and 94.63 | rotenone sensitive OCR after 40 mins of biguanide exposure, % control (MDBK cells): 100.56 % control and 99.00 % control and 99.01 % control and 95.64 % control and 94.52 % control and 93.00 % control | HillSlope (best fit value) [1]: -0.7979 | LogIC50 (best fit value) [1]: -1.959 | IC50 [1]: 11 µM | rotenone sensitive OCR after ADP stimulation, % of control, average (mouse liver mitochondria): 89.71 % of control | rotenone sensitive OCR after ADP stimulation, average (mouse liver mitochondria): 31.13 | rotenone sensitive OCR after ADP stimulation, % of control, individual replicates (mouse liver mitochondria): 103.28 % of control and 81.19 % of control and 80.15 % of control and 94.21 % of control | rotenone sensitive OCR after ADP stimulation, individual replicates (mouse liver mitochondria): 35.84 and 28.17 and 27.81 and 32.69
